# Assay results as given in patent US7888059B2, “Highly purified and stabilized Na,K-ATPase isoforms and methods of producing same” (Yeda Research and Development Co. Ltd., priority 2006, dated 2011).
# Where two headings read alike, the source gives them in different places.
# Tests used:
# Assay type in all cases: biochemical
# Na,K-ATPase = Na,K-ATPase activity and stability with different phosphatidyl serines (FIG. 7); conditions: for NKA activity: measured immediately after elution from the BD Talon beads
# Method: (§1) Urea-treated membranes were homogenized with n-dodecyl-β-maltoside (DDM:protein, 2:1 w/w) (cat. No D310, Anatrace) in a medium containing NaCl, 250 mM; Tris.HCl, 20 mM pH 7.4; imidazole, 5 mM; PMSF, 0.5 mM; and glycerol, 10%. The protein concentration could be varied from 1-5 mg/ml and DDM adjusted accordingly from 2-10 mg/ml respectively. The unsolubilized material was removed by ultracentrifugation. Purification was done by metal-chelate chromatography using BD Talon, metal affinity resin (Co^2+-chelate). The DDM-solubilized membranes were incubated overnight at 4° C. with BD Talon beads, at a ratio of 100 μl beads per supernatant from 10 mg of membranes. EDTA was added at 50-250 μM at protein concentrations 1-5 mg/ml, respectively. The beads were washed twice for five minutes with vortexing with five volumes of a solution containing NaCl, 100 mM; Tris.HCl, 20 mM pH 7.4; C12E8, 0.1 mg/ml; DOPS or SOPS 0.05 mg/ml or other lipids and cholesterol at 0.01 mg/ml, as indicated; glycerol, 10%, and imidazole, 10 mM. Protein was eluted by mixing the beads for 40 minutes at 0° C. with one volume of a solution containing imidazole, 150 mM; NaCl, 100 mM; Tris.HCl, 20 mM pH 7.4, C12E8, 0.1 mg/ml; DOPS, or SOPS 0.05 mg/ml or other lipids and cholesterol as indicated; glycerol, 10%. The eluted protein was stored at 0° C. […] Protein concentration was determined by comparative gel densitometry with pig kidney Na^+,K^+-ATPase or by Lowry assay.
# (§2) Na^+,K^+-ATPase assays were done as described in (Cohen et al., 2005, J Biol Chem, 280, 16610-16618; Strugatsky et al., 2003, J Biol Chem, 278, 46064-46073). 0.1-0.2 μg of purified protein was incubated at 37° C. for 2-10 min in 0.1 ml of Na,K-ATPase reaction medium containing 130 mM NaCl; 20 mM KCl; 3 mM MgCl2; 25 mM Histidine pH 7.4. The reaction was started by addition of 2 mM ATP [^32P-ATP].
# The experiment in FIG. 7 compared the stability with different chain lengths and saturation of the side chains.
# human α1β1 [1] = molecular target: T1, human α1β1 (Homo sapiens, UniProt P05023); assay: Initial Na,K-ATPase activity of human α1β1 prepared with phospholipid with or without cholesterol; conditions: human α1β1, initial activity following elution from the beads, 37° C.
# T1 construct: The coding regions were excised with XbaI and subcloned; made in house; host or cells: Pichia pastoris SMD1165
# Method: as §1, with “mM.” for “mM. Protein was eluted by mixing the beads for 40 minutes at 0° C. with one volume of a solution containing imidazole, 150 mM; NaCl, 100 mM; Tris.HCl, 20 mM pH 7.4, C12E8, 0.1 mg/ml; DOPS, or SOPS 0.05 mg/ml or other lipids and cholesterol as indicated; glycerol, 10%. The eluted protein was stored at 0° C.”, “assay. […]” for “assay.”
# porcine α1β1 = molecular target: T2, porcine α1β1 (Sus scrofa, UniProt P05024); assay: Na,K-ATPase activity of porcine α1β1 with different phospholipids (FIG. 6A); conditions: porcine α1β1, FIG. 6A
# T2 construct: made in house; host or cells: Pichia pastoris SMD1165
# Method: as §1, §2
# Both DOPS and DOPI are acid phospholipids, while DOPC and DOPE have no net charge.
# human α1β1 [2] = molecular target: T1, human α1β1; assay: Stabilization of human α1β1 Na,K-ATPase activity over time (lipids, sterols, FXYD1); conditions: for stabilizing effect of sterol on Na,K-ATPase activity: human α1β1 prepared with DOPS or DOPC, FIGS. 9A-B
# Method: as §1, §2
# (§3) Aliquots of the preparations were incubated either at 37° C. or 45° C., respectively, for the indicated times, and then returned to 0° C., prior to measurement of Na,K-ATPase activity.
# human α1β1 [3] = assay: as above
# Method: as §1, §2, §3
# human α2β1 [4] = molecular target: T3, human α2β1 (Homo sapiens, UniProt P50993); assay: Stabilization of human α2β1 Na,K-ATPase activity over time (lipids, sterols, FXYD1); conditions: for stabilizing effect of sterol on α2β1 complex: 0° C., together with DOPS
# T3 construct: The coding regions were excised with XbaI and subcloned; made in house; host or cells: Pichia pastoris SMD1165 (clone "b", induced at 20° C.)
# Method: as §1, §2, §3
# human α1β1 [5] = molecular target: T1, human α1β1; assay: biochemical
# Method: as §2
# (§4) The inhibitor was added directly to the reaction medium at 37° C. immediately prior to addition of ATP, which starts the reaction.
# human α2β1 [6] = molecular target: T3, human α2β1; assay: biochemical
# Method: as §2, §4
molecule,measurement,setting,value
"CCCCCCCCCCCCCC(=O)OC[C@H](COP(=O)(O)OC[C@H](N)C(=O)O)OC(=O)CCCCCCCCCCCCC [DMPS, 1,2-Dimyristoyl-sn-Glycero-3-[Phospho-L-Serine]]",NKA activity,"Na,K-ATPase",11.48 µmol/min/mg
"CCCCCCCC/C=C\CCCCCCCC(=O)OC[C@H](COP(=O)([O-])OCC[N+](C)(C)C)OC(=O)CCCCCCC/C=C\CCCCCCCC [DOPC, 1,2-Dioleoyl-sn-Glycero-3-Phosphocholine]","Na, K-ATPase activity",human α1β1 [1],14.28 µmol/min/mg
same,"maintenance of Na,K-ATPase activity with phospholipid",porcine α1β1,"somewhat lower initial Na,K-ATPase activity at 37 °C than for DOPS"
"CCCCCCCC/C=C\CCCCCCCC(=O)OC[C@H](COP(=O)(O)OCCN)OC(=O)CCCCCCC/C=C\CCCCCCCC [DOPE, 1,2-Dioleoyl-sn-Glycero-3-Phosphoethanolamine]","maintenance of Na,K-ATPase activity with phospholipid",porcine α1β1,DOPS>DOPI>>DOPE
"CCCCCCCC/C=C\CCCCCCCC(=O)OC[C@H](COP(=O)(O)OC1C(O)C(O)C(O)[C@@H](O)C1O)OC(=O)CCCCCCC/C=C\CCCCCCCC (some centres unmarked) [DOPI, 1,2-Dioleoyl-sn-Glycero-3-Phosphoinositol]","maintenance of Na,K-ATPase activity with phospholipid",porcine α1β1,DOPS>DOPI>>DOPE
"CCCCCCCC/C=C\CCCCCCCC(=O)OC[C@H](COP(=O)(O)OC[C@H](N)C(=O)O)OC(=O)CCCCCCC/C=C\CCCCCCCC [DOPS, 1,2-Dioleoyl-sn-Glycero-3-[Phospho-L-Serine]]","Na, K-ATPase activity",human α1β1 [1],11.64 µmol/min/mg
same,NKA activity,"Na,K-ATPase",11.42 µmol/min/mg
same,half-time for loss of activity,"human α1β1 [2]; 37° C., human α1β1 prepared with DOPS, without PLM",about 70 minutes
same,"remaining activity, of initial activity","human α1β1 [2]; after 120 minutes at 37° C., human α1β1 prepared with DOPS, without PLM",approximately 20%
same,"maintenance of Na,K-ATPase activity with phospholipid",porcine α1β1,DOPS>DOPI>>DOPE
"CCCCCCCCCCCCCCCC(=O)OC[C@H](COP(=O)(O)OC[C@H](N)C(=O)O)OC(=O)CCCCCCCCCCCCCCC [DPPS, 1,2-Dipalmitoyl-sn-Glycero-3-[Phospho-L-Serine]]",NKA activity,"Na,K-ATPase",6.46 µmol/min/mg
"CCCCCCCCCCCCCCCCCC(=O)OC[C@H](COP(=O)(O)OC[C@H](N)C(=O)O)OC(=O)CCCCCCCCCCCCCCCCC [DSPS, 1,2-Distearoyl-sn-Glycero-3-[Phospho-L-Serine]]",NKA activity,"Na,K-ATPase",4.72 µmol/min/mg
"CCCCCCCC/C=C\CCCCCCCC(=O)O[C@H](COC(=O)CCCCCCCCCCCCCCC)COP(=O)(O)OC[C@H](N)C(=O)O [POPS, 1-Palmitoyl-2-Oleoyl-sn-Glycero-3-[Phospho-L-Serine]]",NKA activity,"Na,K-ATPase",12.58 µmol/min/mg
"CCCCCCCC/C=C\CCCCCCCC(=O)O[C@H](COC(=O)CCCCCCCCCCCCCCCCC)COP(=O)(O)OC[C@H](N)C(=O)O [SOPS, I-Stearoyl-2-Oleoyl-sn-Glycero-3-[Phospho-L-Serine]]","stability of Na,K-ATPase activity over time","Na,K-ATPase; 0° C., FIG. 7",declined even more slowly than with the standard DOPS
same,NKA activity,"Na,K-ATPase",11.92 µmol/min/mg
same,stabilizing effect of phosphatidyl serine on α1β1,"human α1β1 [3]; 37° C. and 0° C., FIGS. 8A-B (porcine and human α1β1)",significantly more stabilizing than DOPS
CC(C)CCC[C@@H](C)[C@H]1CC[C@H]2[C@@H]3CC=C4C[C@@H](O)CC[C@]4(C)[C@H]3CC[C@]12C [cholesterol],"stabilizing effect of sterol on Na,K-ATPase activity",human α1β1 [2]; 37° C.,greatly stabilizes
same,stabilizing effect of sterol on α2β1 complex,human α2β1 [4],greatly stabilized
C[C@H]1O[C@@H](O[C@H]2[C@@H](O)C[C@H](O[C@H]3[C@@H](O)C[C@H](O[C@H]4CC[C@@]5(C)[C@H](CC[C@@H]6[C@@H]5C[C@@H](O)[C@]5(C)[C@@H](C7=CC(=O)OC7)CC[C@]65O)C4)O[C@@H]3C)O[C@@H]2C)C[C@H](O)[C@@H]1O [digoxin],"offset (activity not inhibited), α1β1",human α1β1 [5],no significant offset
same,"offset (activity not inhibited), α2β1",human α2β1 [6],0.058±0.016
CC(C)[C@@H](C)/C=C/[C@@H](C)[C@H]1CC[C@H]2C3=CC=C4C[C@@H](O)CC[C@]4(C)[C@H]3CC[C@]12C [ergosterol],"stabilizing effect of sterol on Na,K-ATPase activity",human α1β1 [2]; 37° C.,only a minor stabilizing effect
same,stabilizing effect of sterol on α2β1 complex,human α2β1 [4],much less effective than cholesterol
CO[C@H]1[C@H](O)[C@H](O[C@H]2CC[C@@]3(C)[C@H](CC[C@@H]4[C@@H]3CC[C@]3(C)[C@@H](C5=CC(=O)OC5)CC[C@]43O)C2)O[C@@H](C)[C@@H]1O [neriifolin],"offset, α1","human α1β1 [5]; 37° C., FIG. 18B",0
same,IC50,"human α1β1 [5]; K0.5 for inhibition, α1, 37° C., FIG. 18B, reaction time not stated",50 ± 7 nM
same,α1/α2 preference,"human α1β1 [5]; conditions of the Na,K-ATPase reaction at 37° C.",no significant α1/α2 preference
same,"offset, α2","human α2β1 [6]; 37° C., FIG. 18B",0.12
same,IC50,"human α2β1 [6]; K0.5 for inhibition, α2, 37° C., FIG. 18B, reaction time not stated",29 ± 4.1 nM
C[C@@H]1O[C@@H](O[C@H]2C[C@@H](O)[C@]3(CO)[C@H]4[C@H](O)C[C@]5(C)[C@@H](C6=CC(=O)OC6)CC[C@]5(O)[C@@H]4CC[C@]3(O)C2)[C@H](O)[C@H](O)[C@H]1O [ouabain],extent of inhibition of α1β1,"human α1β1 [5]; 37° C., reaction 10 minutes",fully inhibited
same,"offset (activity not inhibited), α2β1","human α2β1 [6]; 37° C., 60 minutes",0.056±0.017
same,"offset (activity not inhibited), α2β1","human α2β1 [6]; 37° C., reaction 10 minutes",0.069±0.01
"PLM: human FXYD1, subsidiary subunit of Na,K-ATPase, Genbank Accession No. H23593","stability of Na,K-ATPase activity","human α1β1 [3]; 37° C., human α1β1, PLM with DOPS preparation, SOPS/cholesterol without PLM",essentially no loss of activity up to 120 minutes
same,"stability of Na,K-ATPase activity","human α2β1 [4]; 37° C., α2β1 prepared with SOPS/cholesterol with PLM",essentially stable for 60 minutes at 37 °C
